Measured values published in publication PMC11274128, “Modification and Synergistic Studies of a Novel Frog Antimicrobial Peptide against Pseudomonas aeruginosa Biofilms” (Antibiotics, 2024).
Values after ≈ are worked out from the molar mass of the structure shown.

Columns and labels:
MRSA NCTC 12493 biofilm = assay type: cell-based, methicillin-resistant Staphylococcus aureus
Text: (§1) The minimum bactericidal concentration (MBC) is defined as the lowest antibiotic concentration that kills 99.9% of the inoculum. The minimum biofilm inhibitory concentration (MBIC) is the lowest concentration that inhibits at least 90% of the formation of biofilm. The minimum biofilm eradication concentration (MBEC) is the minimum concentration that can eradicate at least 99% of the biofilm. In addition to the eight microorganisms described previously, this experiment was also applied to P. aeruginosa (ATCC 27853, ATCC BAA-2108, P. aeruginosa 01, P. aeruginosa 14).

P. aeruginosa 14 biofilm = assay type: cell-based, Pseudomonas aeruginosa
Text: as §1

P. aeruginosa 01 biofilm = assay type: cell-based, Pseudomonas aeruginosa
Text: as §1

[1] = system: P. aeruginosa ATCC 27853 biofilm; assay type: cell-based, Pseudomonas aeruginosa
Text: as §1

[2] = system: P. aeruginosa ATCC BAA-2108 biofilm; assay type: cell-based, Pseudomonas aeruginosa
Text: as §1

[3] = system: P. aeruginosa ATCC CRM 9027 biofilm; assay type: cell-based, Pseudomonas aeruginosa
Text: as §1

MRSA (NCTC 12493) = assay: microbe, parasite or virus in culture; assay type: cell-based, methicillin-resistant Staphylococcus aureus; details: Staphylococcus aureus, planktonic MRSA NCTC 12493; for MIC: 37 °C, nine repeats of three independent experiments, read-out: MIC; for MBC: lowest concentration killing 99.9% of inoculum, read-out: MBC
Text: (§2) The minimum inhibitory concentration (MIC) is the minimum concentration of an antimicrobial agent that prevents the visible growth of a bacterium or bacteria. The MIC is an important piece of data for research on new antimicrobial agents and helps in the effective selection of antibiotics to improve the success of treatment. The minimum bactericidal concentration (MBC) is defined as the lowest antibiotic concentration that kills 99.9% of the inoculum. This study mainly contained eight different microorganisms, which were Staphylococcus aureus (ATCC 6538), methicillin-resistant Staphylococcus aureus (NCTC 12493), Enterococcus faecalis (NCTC 12697), Escherichia coli (ATCC 8739), Klebsiella pneumoniae (ATCC 43816), Pseudomonas aeruginosa (ATCC CRM 9027), Acinetobacter baumannii (BAA 747), and Candida albicans (ATCC 10231). The bacteria were incubated in the compatible medium at 37 °C overnight.

E. coli (ATCC 8739) = assay: microbe, parasite or virus in culture; assay type: cell-based, Escherichia coli; details: Escherichia coli, ATCC8739, planktonic E. coli ATCC 8739; for MIC: 37 °C, nine repeats of three independent experiments, read-out: MIC; for MBC: lowest concentration killing 99.9% of inoculum, read-out: MBC
Text: as §2

[4] = system: S. aureus ATCC 6538 biofilm; assay type: cell-based, Staphylococcus aureus
Text: as §1

A. baumannii (BAA 747) = assay: microbe, parasite or virus in culture; assay type: cell-based, Acinetobacter baumannii; details: Acinetobacter baumannii, BAA747, planktonic A. baumannii BAA 747; for MIC: 37 °C, nine repeats of three independent experiments, read-out: MIC; for MBC: lowest concentration killing 99.9% of inoculum, read-out: MBC
Text: as §2

S. aureus (ATCC 6538) = assay: microbe, parasite or virus in culture; assay type: cell-based, Staphylococcus aureus; details: Staphylococcus aureus, ATCC6538, planktonic S. aureus ATCC 6538; for MIC: 37 °C, nine repeats of three independent experiments, read-out: MIC; for MBC: lowest concentration killing 99.9% of inoculum, read-out: MBC
Text: as §2

[5] = system: K. pneumoniae ATCC 43816 biofilm; assay type: cell-based, Klebsiella pneumoniae
Text: as §1

[6] = system: P. aeruginosa (ATCC CRM 9027); assay: microbe, parasite or virus in culture; assay type: cell-based, Pseudomonas aeruginosa; details: Pseudomonas aeruginosa, planktonic P. aeruginosa ATCC CRM 9027; for MIC: 37 °C, nine repeats of three independent experiments, read-out: MIC; for MBC: lowest concentration killing 99.9% of inoculum, read-out: MBC
Text: as §2

[7] = system: E. faecalis NCTC 12697 biofilm; assay type: cell-based, Enterococcus faecalis
Text: as §1

[8] = system: A. baumannii BAA 747 biofilm; assay type: cell-based, Acinetobacter baumannii
Text: as §1

E. faecalis (NCTC 12697) = assay: microbe, parasite or virus in culture; assay type: cell-based, Enterococcus faecalis; details: Enterococcus faecalis, NCTC12697, planktonic E. faecalis NCTC 12697; for MIC: 37 °C, nine repeats of three independent experiments, read-out: MIC; for MBC: lowest concentration killing 99.9% of inoculum, read-out: MBC
Text: as §2

[9] = system: K. pneumoniae (ATCC 43816); assay: microbe, parasite or virus in culture; assay type: cell-based, Klebsiella pneumoniae; details: Klebsiella pneumoniae, ATCC43816, planktonic K. pneumoniae ATCC 43816; for MIC: 37 °C, nine repeats of three independent experiments, read-out: MIC; for MBC: lowest concentration killing 99.9% of inoculum, read-out: MBC
Text: as §2

[10] = lowest concentration inhibiting at least 90% of biofilm formation
[11] = minimum concentration eradicating at least 99% of the biofilm

Row | MIC (MRSA (NCTC 12493)) | MIC (E. coli (ATCC 8739)) | MIC (A. baumannii (BAA 747)) | MIC (S. aureus (ATCC 6538)) | MIC [6] | MIC (E. faecalis (NCTC 12697)) | MIC [9] | SMILES | MBC (MRSA (NCTC 12493)) | MBC (E. coli (ATCC 8739)) | MBC (A. baumannii (BAA 747)) | MBC (S. aureus (ATCC 6538)) | MBC [6] | MBC (E. faecalis (NCTC 12697)) | MBC [9] | other results
1 | 1 µM (≈ 0.478 µg/mL) | 2 µM (≈ 0.955 µg/mL) | > 128 µM | 2 µM (≈ 0.955 µg/mL) | 0.25 µM (≈ 0.119 µg/mL) | 16 µM (≈ 7.64 µg/mL) | 1 µM (≈ 0.478 µg/mL) | CNC(C)C1CCC(N)C(OC2C(N)CC(N)C(OC3OCC(C)(O)C(NC)C3O)C2O)O1 (stereo not drawn) [Gentamicin, reference compound] | 2 µM (≈ 0.955 µg/mL) | 4 µM (≈ 1.91 µg/mL) | > 128 µM | 2 µM (≈ 0.955 µg/mL) | 0.5 µM (≈ 0.239 µg/mL) | 32 µM (≈ 15.3 µg/mL) | 1 µM (≈ 0.478 µg/mL) | MBIC (MRSA NCTC 12493 biofilm; [10]): 2 µM; MBEC (MRSA NCTC 12493 biofilm; [11]): > 128 µM; MBIC (P. aeruginosa 14 biofilm; [10]): 2 µM; MBEC (P. aeruginosa 14 biofilm; [11]): 4 µM; MBIC (P. aeruginosa 01 biofilm; [10]): 4 µM; MBEC (P. aeruginosa 01 biofilm; [11]): 8 µM; MBIC [1, 10]: 4 µM; MBEC [1, 11]: > 128 µM; MBIC [2, 10]: 16 µM; MBEC [2, 11]: 128 µM; MBIC [3, 10]: 2 µM; MBEC [3, 11]: 4 µM; MBIC [4, 10]: 8 µM; MBEC [4, 11]: 16 µM; MBIC [5, 10]: 32/32 µM; MBEC [5, 11]: 32/32 µM; MBIC [7, 10]: >128/>128 µM; MBEC [7, 11]: >128/>128 µM; MBIC [8, 10]: 8 µM; MBEC [8, 11]: 16 µM
2 | 0.25 µM (≈ 0.0903 µg/mL) | 0.25 µM (≈ 0.0903 µg/mL) | 1 µM (≈ 0.361 µg/mL) | 0.5 µM (≈ 0.181 µg/mL) | 2 µM (≈ 0.723 µg/mL) | 2 µM (≈ 0.723 µg/mL) | > 128 µM | C[C@H]1COc2c(N3CCN(C)CC3)c(F)cc3c(=O)c(C(=O)O)cn1c23 [Levofloxacin, reference compound] | 0.5 µM (≈ 0.181 µg/mL) | 0.5 µM (≈ 0.181 µg/mL) | 1 µM (≈ 0.361 µg/mL) | 0.5 µM (≈ 0.181 µg/mL) | 2 µM (≈ 0.723 µg/mL) | 8 µM (≈ 2.89 µg/mL) | > 128 µM | 
